According to patent publication US20210255193A1, “LYSINE REACTIVE PROBES AND USES THEREOF” (The Scripps Research Institute, priority 2017, published 2021):

Tests used:
Assay in all cases: competitive isoTOP-ABPP
Assay type in all cases: binding
[1] = target: T1, ARL6IP1 ADP-ribosylation factor-like protein 6-interacting (Homo sapiens, UniProt Q15041); conditions: 50 uM, 231 sol, in vitro; for R value (DMSO/fragment) for probe 1 labeling: Q15041_K188
T1 construct: isoTOP-ABPP experiments performed in cell lysates (in vitro); endogenous in cells; host or cells: soluble proteome of human cancer cell lines (MDA-MB-231; Ramos and Jurkat also prepared)
T1 sequence (Q15041 whole entry, the tested form may be a part): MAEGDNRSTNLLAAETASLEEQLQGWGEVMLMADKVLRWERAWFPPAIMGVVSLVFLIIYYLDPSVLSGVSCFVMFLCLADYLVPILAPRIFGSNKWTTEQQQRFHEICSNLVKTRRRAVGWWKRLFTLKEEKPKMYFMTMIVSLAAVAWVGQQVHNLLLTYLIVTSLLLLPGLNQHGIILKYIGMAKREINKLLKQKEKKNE
In short: (§1)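 Fragments at 50 μM (activated esters) or 100 μM (guanidinylating agents) were incubated with 0.5 ml lysate before probe labeling. After 0.1 mM STP-alkyne for 1 h, samples were clicked to isotopically distinct TEV tags, and R taken as DMSO-over-compound MS1 peak-area ratio.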

DTYMK Thymidylate kinase = target: T2, DTYMK Thymidylate kinase (Homo sapiens, UniProt P23919); conditions: 50 uM, 231 sol, in vitro; for R value (DMSO/fragment) for probe 1 labeling: P23919_K118
T2 construct: isoTOP-ABPP experiments performed in cell lysates (in vitro); endogenous in cells; host or cells: soluble proteome of human cancer cell lines (MDA-MB-231; Ramos and Jurkat also prepared)
T2 sequence (P23919 1-212): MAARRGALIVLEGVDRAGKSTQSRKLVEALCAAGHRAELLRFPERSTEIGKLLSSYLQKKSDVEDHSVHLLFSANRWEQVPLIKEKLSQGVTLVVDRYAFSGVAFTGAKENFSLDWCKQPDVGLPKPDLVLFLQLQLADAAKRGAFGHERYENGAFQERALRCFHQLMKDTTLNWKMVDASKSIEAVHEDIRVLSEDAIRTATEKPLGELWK
In short: as §1

[2] = target: T3, EEF1G Elongation factor 1-gamma (Homo sapiens, UniProt P26641); conditions: 50 uM, 231 sol, in vitro; for R value (DMSO/fragment) for probe 1 labeling: P26641_K227
T3 construct: isoTOP-ABPP experiments performed in cell lysates (in vitro); endogenous in cells; host or cells: soluble proteome of human cancer cell lines (MDA-MB-231; Ramos and Jurkat also prepared)
T3 sequence (P26641 whole entry, the tested form may be a part): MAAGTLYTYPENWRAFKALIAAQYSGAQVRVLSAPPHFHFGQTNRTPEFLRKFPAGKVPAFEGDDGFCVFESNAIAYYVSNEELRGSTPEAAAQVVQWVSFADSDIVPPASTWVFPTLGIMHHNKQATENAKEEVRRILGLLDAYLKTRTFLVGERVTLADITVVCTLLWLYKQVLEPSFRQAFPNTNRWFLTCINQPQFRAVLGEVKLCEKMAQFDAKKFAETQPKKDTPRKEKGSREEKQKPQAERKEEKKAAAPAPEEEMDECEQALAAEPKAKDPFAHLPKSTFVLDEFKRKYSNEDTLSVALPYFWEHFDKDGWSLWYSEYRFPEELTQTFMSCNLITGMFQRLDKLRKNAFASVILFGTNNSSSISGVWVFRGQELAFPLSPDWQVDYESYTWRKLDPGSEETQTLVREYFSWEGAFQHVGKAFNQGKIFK
In short: as §1

[3] = target: T4, ETFA Electron transfer flavoprotein subunit alpha, mitochondrial (Homo sapiens, UniProt P13804); conditions: 50 uM, 231 sol, in vitro; for R value (DMSO/fragment) for probe 1 labeling: P13804_K139
T4 construct: isoTOP-ABPP experiments performed in cell lysates (in vitro); endogenous in cells; host or cells: soluble proteome of human cancer cell lines (MDA-MB-231; Ramos and Jurkat also prepared)
T4 sequence (P13804 20-333): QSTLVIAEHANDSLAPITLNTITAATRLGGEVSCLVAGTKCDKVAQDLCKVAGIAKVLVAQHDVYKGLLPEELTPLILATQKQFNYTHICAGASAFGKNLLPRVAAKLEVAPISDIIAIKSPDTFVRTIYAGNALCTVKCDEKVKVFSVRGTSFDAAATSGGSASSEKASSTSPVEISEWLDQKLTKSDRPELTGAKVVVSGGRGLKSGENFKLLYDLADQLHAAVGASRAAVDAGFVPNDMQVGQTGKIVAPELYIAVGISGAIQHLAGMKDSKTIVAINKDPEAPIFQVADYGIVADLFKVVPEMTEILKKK
T4 sequence (P38117 2-255 partner limits assumed): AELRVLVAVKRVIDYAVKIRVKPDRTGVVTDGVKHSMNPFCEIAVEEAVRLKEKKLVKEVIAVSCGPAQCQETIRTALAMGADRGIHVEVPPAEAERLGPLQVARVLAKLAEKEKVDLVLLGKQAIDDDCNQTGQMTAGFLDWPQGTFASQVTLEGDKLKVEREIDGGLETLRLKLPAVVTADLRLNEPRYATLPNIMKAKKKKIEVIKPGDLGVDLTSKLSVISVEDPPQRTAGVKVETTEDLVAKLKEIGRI
In short: as §1

isoTOP-ABPP reactivity ratio at lysine P23919_K118 (DTYMK Thymidylate kinase)	isoTOP-ABPP reactivity ratio at lysine P26641_K227 [2]	SMILES	isoTOP-ABPP reactivity ratio at lysine P13804_K139 [3]	further results
1.1	0.9	O=C(Oc1c(F)c(F)c(F)c(F)c1F)C1CCN(C(=O)OCc2ccccc2)CC1 [fragment 24, 1-Benzyl 4-(pentafluorophenyl) piperidine-1,4-dicarboxylate]	1.1	isoTOP-ABPP reactivity ratio at lysine Q15041_K188 [1]: 2.4
1.1	1.1	O=C(Oc1c(F)c(F)c(F)c(F)c1F)c1ccc2ccccc2n1 [fragment 25, Pentafluorophenyl quinoline-2-carboxylate]	–	–
–	0.8	O=C(CCc1coc2cc(F)ccc2c1=O)Oc1c(F)c(F)c(F)c(F)c1F [fragment 26, Pentafluorophenyl 3-(7-fluoro-4-oxo-4H-chromen-3-yl)propanoate]	–	–
–	1.2	O=C(CN1C(=O)c2ccccc2C1=O)Oc1c(F)c(F)c(F)c(F)c1F [fragment 27, Pentafluorophenyl 2-(1,3-dioxoisoindolin-2-yl)acetate]	–	–
0.9	15.0	CCn1cc(C(=O)Oc2c(F)c(F)c(F)c(F)c2F)c(=O)c2ccc(C)nc21 [fragment 28, Pentafluorophenyl 1-ethyl-7-methyl-4-oxo-1,4-dihydro-1,8-naphthyridine-3-carboxylate]	–	–

More lines, now with the values behind:

SMILES	isoTOP-ABPP reactivity ratio at lysine P23919_K118 (DTYMK Thymidylate kinase)	isoTOP-ABPP reactivity ratio at lysine P26641_K227 [2]	isoTOP-ABPP reactivity ratio at lysine P13804_K139 [3]	further results
O=C(Oc1c(F)c(F)c(F)c(F)c1F)C(c1ccccc1)c1ccccc1 [fragment 20, Pentafluorophenyl 2,2-diphenylacetate]	–	–	–	R value (DMSO/fragment) for probe 1 labeling [1]: 1.8; R value (DMSO/fragment) for probe 1 labeling (DTYMK Thymidylate kinase): 0.9; R value (DMSO/fragment) for probe 1 labeling [2]: 0.9; R value (DMSO/fragment) for probe 1 labeling [3]: 0.9
O=C(Oc1c(F)c(F)c(F)c(F)c1F)c1cc(C(F)(F)F)cc(C(F)(F)F)c1 [fragment 21, Pentafluorophenyl 3,5-bis(trifluoromethyl)benzoate]	–	–	–	R value (DMSO/fragment) for probe 1 labeling [1]: 3.9; R value (DMSO/fragment) for probe 1 labeling (DTYMK Thymidylate kinase): 0.8; R value (DMSO/fragment) for probe 1 labeling [2]: 0.8
Cn1cc(CC(=O)Oc2c(F)c(F)c(F)c(F)c2F)c2ccccc21 [fragment 22, Pentafluorophenyl 2-(1-methyl-1H-indol-3-yl)acetate]	–	–	–	R value (DMSO/fragment) for probe 1 labeling [3]: 0.9
COc1cc(CCC(=O)Oc2c(F)c(F)c(F)c(F)c2F)cc(OC)c1OC [fragment 23, Pentafluorophenyl 3-(3,4,5-trimethoxyphenyl)propanoate]	–	–	–	R value (DMSO/fragment) for probe 1 labeling [3]: 1.4
O=C(CCc1cn(-c2ccccc2)nc1-c1ccccc1)Oc1ccc([N+](=O)[O-])cc1[N+](=O)[O-] [fragment 29, 2,4-Dinitrophenyl 3-(1,3-diphenyl-1H-pyrazol-4-yl)propanoate]	1.1	0.7	0.8	–
O=C(Oc1ccc([N+](=O)[O-])cc1[N+](=O)[O-])C(c1ccccc1)c1ccccc1 [fragment 30, 2,4-Dinitrophenyl 2,2-diphenylacetate]	–	0.9	20.0	–
O=C(Oc1ccc([N+](=O)[O-])cc1[N+](=O)[O-])c1cc(C(F)(F)F)cc(C(F)(F)F)c1 [fragment 31, 2,4-Dinitrophenyl 3,5-bis(trifluoromethyl)benzoate]	–	2.2	0.8	–
Cn1cc(CC(=O)Oc2ccc([N+](=O)[O-])cc2[N+](=O)[O-])c2ccccc21 [fragment 32, 2,4-Dinitrophenyl 2-(1-methyl-1H-indol-3-yl)acetate]	–	–	20.0	isoTOP-ABPP reactivity ratio at lysine Q15041_K188 [1]: 5.9
COc1cc(CCC(=O)Oc2ccc([N+](=O)[O-])cc2[N+](=O)[O-])cc(OC)c1OC [fragment 33, 2,4-Dinitrophenyl 3-(3,4,5-trimethoxyphenyl)propanoate]	6.6	0.7	0.7	isoTOP-ABPP reactivity ratio at lysine Q15041_K188 [1]: 1.3
